Test results from the METLIN SMRT retention time set (Domingo-Almenara et al. 2019).

Experiment: gradient 5% acetonitrile 3 min, to 50% in 2 min, to 85% in 15 min, held 3 min, 100 µL/min
Conditions: column: Zorbax Extend-C18 2.1 x 50 mm; eluents: water / acetonitrile, 0.1% formic acid
How it was run: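 Retention times come from adduct peaks that were picked computationally and then checked by hand. The standards, pure and pooled in mixtures of ~100 molecules, were run on a Zorbax Extend-C18 column (2.1 × 50 mm, 1.8 μm) at 100 μL/min with water and acetonitrile, each with 0.1% formic acid. Detection was by quadrupole time-of-flight mass spectrometry in positive and negative ionization mode, with a dead volume of 40 μL and a dwell volume of 900 μL.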

| SMILES | RP-LC retention time |
| --- | --- |
| CCCN1C(=O)COc2ccc(-c3noc(-c4ccc(C#N)cc4)n3)cc21 | 1130 s |
| O=C(N1CCC(Cc2nc(C3CCOCC3)no2)CC1)C1(c2ccccc2)CC1 | 817 s |
| CCc1nccn1Cc1nc(-c2cccc(C(F)(F)F)c2)no1 | 686 s |
| COc1cc(C(=O)Nc2nc(-c3ccc4c(c3)NC(=O)C(C)O4)cs2)cc(OC)c1OC (centres undefined) | 903 s |
| CCOC(=O)c1c(C)[nH]c(C(=O)N2CCC(CC(=O)N3CCCC3)CC2)c1C | 694 s |
| O=C(N[C@H]1C[C@@H]2C[C@H]1CN2C(=O)c1cccc(OC(F)(F)F)c1)c1ccccc1 | 846 s |
| Cc1oc2ccn(Cc3ccccc3F)c(=O)c2c1C(=O)NCc1ccc(F)cc1 | 1090 s |
| Cc1cccc(C(=O)Nc2nc(-c3ccc4c(c3)NC(=O)C(C)O4)c(C)s2)c1 (centres undefined) | 979 s |
| Cc1nc(-c2csc(S(=O)(=O)N3CCC(C(=O)Nc4ccc(F)cc4Cl)CC3)c2)no1 | 1010 s |
| CC(=O)N1c2ccc(S(=O)(=O)N3CCCCCC3)cc2CC1C(=O)NCc1ccccc1 (centres undefined) | 912 s |
| Fc1ccccc1CNc1cc(-n2cccn2)ncn1 | 838 s |
| N[C@H]1CCN(O)C1=O | 627 s |
| Cc1cc(=O)n(CC(=O)N2CCN(c3ccc(F)cc3)CC2)c(N2CCOCC2)n1 | 674 s |
| Cc1ccc(NC(=O)C2CCCN2S(=O)(=O)c2cc3c(cc2C)NC(=O)CO3)c(C)c1 (centres undefined) | 817 s |
| CC(C)c1noc(-c2ccnc(-n3cnc(C(=O)N(C)C4CCCCC4)c3)c2)n1 | 622 s |
| COc1cc(OC)cc(C(=O)N2CCN(c3cc(-c4cccs4)[nH]n3)CC2)c1 | 794 s |
| O=C(Cn1nc2c3cc(Cl)ccc3ncn2c1=O)Nc1cccc(Cl)c1 | 730 s |
| COc1ccc(N2C(=O)CN(C(C)c3ccccc3)[C@H]3CS(=O)(=O)C[C@H]32)cc1 (some centres undefined) | 808 s |
| O=C(NCCOc1ccc(-c2ccccn2)nn1)c1cccs1 | 586 s |
| CCC(=O)NCc1nc2c(n1CC)CN(C(=O)c1cccc(C(F)(F)F)c1)CC2 | 603 s |
| N#Cc1ccc(S(=O)(=O)N2CCC(C(=O)NCC(=O)N3CCCc4ccccc43)CC2)cc1 | 832 s |
| CN(CC1(C)CCOCC1)S(=O)(=O)c1ccccc1C(F)(F)F | 820 s |
| CCCn1cc(C(=O)NC(C)c2cccnc2)c2cccnc21 (centres undefined) | 597 s |

| SMILES | RP-LC retention time |
| --- | --- |
| c1ccc(-c2nc[nH]c2-c2ccccc2)cc1 | 696 s |
| Cc1ccc(C2CN(S(=O)(=O)c3ccccc3)CCN2C)cc1 (centres undefined) | 603 s |
| COc1ccc(CN2CCN(C(=O)C3=Cc4ccccc4OC3)CC2)c(OC)c1OC | 679 s |
| CCCNC(=O)C1CCCN(c2ccc(SCC(=O)Nc3cc(OC)cc(OC)c3)nn2)C1 (centres undefined) | 673 s |
| O=C1CCCCC(CNC(=O)c2ccsc2)N1 (centres undefined) | 619 s |
| CCOC(=O)c1c(C)c(CCC(=O)NC(C)c2ccccc2)n(C)c1C (centres undefined) | 904 s |
| Cc1ccc(NC(=O)C2CCCN(c3nc4c(s3)c(C)nn4-c3cccc(F)c3)C2)c(C)c1 (centres undefined) | 1280 s |
| Cc1cccc(NC(=O)C2CCCN(S(=O)(=O)c3cn(C(C)C)cn3)C2)c1C (centres undefined) | 878 s |
| Cc1ccccc1Nc1c(-c2ccc(Cl)cc2)nc2ccccn12 | 804 s |
| Cc1ccc(NS(=O)(=O)c2cc3n(c2)CCCNC3=O)c(Cl)c1 | 686 s |
| CC1Cc2nc(SCC(=O)NCC3CCCO3)n(-c3ccc(F)cc3)c(=O)c2S1 (centres undefined) | 728 s |
| CC12CCC(C(=O)NCc3ccccc3)(OC1=O)C2(C)C (centres undefined) | 768 s |
| CCCC(NC(=O)Cc1ccc(OC)c(Cl)c1)C(=O)Nc1nc2ccccc2[nH]1 (centres undefined) | 720 s |
| CCn1c(=O)oc2cc(-c3noc(-c4ccc(F)cc4Cl)n3)ccc21 | 1190 s |
| CN1CCn2cc(S(=O)(=O)Nc3ccc(Cl)cc3F)cc2C1=O | 723 s |
| Cc1ccc(-c2csc(-n3nc(C)c(CC(=O)N4CCCCCC4)c3C)n2)cc1 | 1270 s |
| O=C(NC1CCCCCC1)C1CCCN(c2nccnc2Sc2ccccc2)C1 (centres undefined) | 1170 s |
| CCOC(=O)c1ccc(Oc2ncnc(N)c2[N+](=O)[O-])cc1 | 769 s |
| O=C1CCCN1c1ccc(Cn2nc3c(-c4nc(-c5ccccc5)no4)cccn3c2=O)cc1 | 839 s |
| CCN(Cc1nc2ccccc2n1C)c1ccccc1 | 593 s |
| CCn1ncc(NC(=O)c2ccc(F)cc2)c(N2CCOCC2)c1=O | 772 s |
| O=C(c1cc(-c2ccncc2)n[nH]1)N1CCC(C(=O)N2CCN(C(=O)c3ccco3)CC2)CC1 | 566 s |
| CCN(c1ccccc1)S(=O)(=O)c1cc(-c2[nH]ncc2C(=O)N2CCOCC2)oc1C | 718 s |

| SMILES | RP-LC retention time |
| --- | --- |
| Cc1ccc(F)c(NC(=O)C2CC(=O)N(c3ccc4oc(C)nc4c3)C2)c1 (centres undefined) | 753 s |
| COCCCNC(=O)C1CCCN(c2nc3ccc(Cl)cc3[nH]2)C1 (centres undefined) | 610 s |
| CC(C)CCNC(=O)N1CCN(Cc2nc3ccc(Cl)cc3o2)CC1 | 746 s |
| Cc1ccc(NC(=O)Cn2c(N3CCc4ccccc4C3)nc(C)cc2=O)cc1 | 810 s |
| Cc1ccc(NC(=O)/C=C/c2ccccc2)c(C)c1 | 913 s |
| Cc1cccc(NC(=O)CN2C(=O)CCCc3cc(S(=O)(=O)N4CCCCC4)ccc32)c1 | 958 s |
| Cc1ccc(C)c(OCC(=O)Nc2nc(-c3ccc(Br)cc3)cs2)c1C | 1430 s |
| O=C(Nc1cc(F)cc(F)c1)C1CCN(c2cc(N3CCCC3)ncn2)CC1 | 724 s |
| CN1c2ccccc2C(=O)NC12CCN(C(=O)c1ccccc1F)CC2 | 712 s |
| Nc1ccc(C(=O)Oc2ccc([N+](=O)[O-])cc2)cc1 | 926 s |
| COCCNC(=O)NCCn1c(-c2ccc(C)cc2)nc2cccnc21 | 588 s |
| COc1ccccc1-c1nc(Cn2nnc(-c3nc(-c4ccncc4)no3)c2C)c(C)o1 | 872 s |
| O=C(CCc1c(-c2ccc(Br)cc2)nc2ccccn12)NCc1ccco1 | 660 s |
| CC(C)N1C(=O)C(C)(C(=O)NCc2ccc3c(c2)OCO3)Oc2cccnc21 (centres undefined) | 894 s |
| COc1ccc(NC(=O)Cn2c(C)nc3c(sc4nc(-c5ccccc5)ccc43)c2=O)c(OC)c1 | 1040 s |
| C[C@]12CC[C@H](O)CC1=CC[C@@H]1[C@@H]2CC[C@]2(C)c3[nH]ncc3C[C@@H]12 | 796 s |
| COc1cccc(-n2c(=O)c3sccc3n(Cc3nc(-c4ccc(Cl)c(F)c4)no3)c2=O)c1 | 1060 s |
| O=C(CSc1nnc2sc3ccccc3n12)N1CCOCC1 | 614 s |
| CCNC(=O)c1sc2nc(-c3cccc(C)c3)c(NCCOC)n2c1C | 737 s |
| COc1ccc(NC(=O)Cn2c(=O)c(CCC(=O)NC3CCCC3)nc3ccccc32)cc1Cl | 681 s |
| O=C(CSc1n[nH]c(-c2ccc(F)cc2)n1)Nc1ccc(F)cc1F | 853 s |
| Cc1ccc(CNC(=O)C2CCN(c3ncccc3S(=O)(=O)N3CCCCC3)CC2)cc1 | 960 s |
| COc1cccc(CNC(=O)C2(C)CCCN(S(=O)(=O)c3ccc(Cl)cc3)C2)c1 (centres undefined) | 932 s |

| SMILES | RP-LC retention time |
| --- | --- |
| CCN(CC)S(=O)(=O)c1ccc2c(c1)N(CC(=O)NCC1COCCO1)C(=O)C1CCCCN21 (centres undefined) | 769 s |
| Cc1csc(-c2cc(S(=O)(=O)Nc3ccc(Cl)cc3F)c(C)s2)n1 | 1080 s |
| COc1ccc(-c2nnc(-c3cccc(S(=O)(=O)N(C)C)c3)o2)cc1OC | 816 s |
| CN(Cc1cccnc1Oc1ccccc1)C(=O)c1cccn1C | 781 s |
| Cc1ccc(N2CC(c3noc(-c4cc(Cl)ccc4F)n3)CC2=O)cc1 (centres undefined) | 1090 s |
| Cc1nc(-c2cccnc2)nc2c1CCC(=O)N2Cc1cccnc1 | 560 s |
| Cc1cc(NC(=O)Cn2nc(N(C)C)c3ccccc3c2=O)ccc1Br | 995 s |
| OC(c1ccccc1)(c1ccccc1)c1nccn1-c1ccccc1 | 754 s |
| O=C(COc1ccc2c(c1)C(=O)CC2)NCCC1=CCCCC1 | 827 s |
| CCCNC(=O)c1ncn2c1C(=O)N(C1CC1)C(C)(C(=O)NCc1ccc(F)cc1)C2 (centres undefined) | 692 s |
| CCOc1ccc(C(=O)Nc2ccc3c(c2)Sc2ncccc2C(=O)N3C)cc1 | 826 s |
| Cc1cc(=O)c2c(C)ccc(C)c2[nH]1 | 677 s |
| CCOc1ccc(-c2ccc(=O)n(CCc3nc(-c4ccc(SC)cc4)no3)n2)cc1 | 1030 s |
| CC(=O)N1CCCC1c1nc(C2CN(C(=O)c3ccsc3)C2)no1 (centres undefined) | 629 s |
| Cc1ccc(C)c(NC(=O)Cn2c(=O)cc(-c3nc(C)no3)c3ccccc32)c1 | 910 s |
| CCc1cc(=O)n(CC(=O)N2CCN(c3ccc(OC)cc3)CC2)c(N2CCOCC2)n1 | 668 s |
| COCCc1noc(-c2ccc(=O)n(CC(=O)Nc3cc(F)ccc3C)c2)n1 | 704 s |
| CN(C)CC[C@@H](c1ccc(Br)cc1)c1ccccn1 | 682 s |
| O=C(Nc1ccc2c(c1)OCCO2)N1CCCn2nc(-c3cccs3)cc2C1 | 777 s |
| CCOc1ccc2cccc(NC(=O)c3cnccn3)c2n1 | 1080 s |
